# Measurements published in PMC3400893 (Clinical Pharmacology and Therapeutics, 2012).
# What was measured:
# humans = conditions: taken orally at high doses; ref [46]; cited from earlier work
# [1] = ref [47],[48]; cited from earlier work
# patients with T2DM [2] = experiment: 28-day randomized placebo-controlled study: efficacy/pharmacodynamics; format: in vivo, human; conditions: for Decrease in FPG from baseline after correcting for changes in placebo values: after 28 days; for OGTT glucose excursions above baseline FPG lower than placebo: corrected for FPG at hour 0
# [3] = 28-day study: plasma LX4211 pharmacokinetics; format: in vivo, human; conditions: for Tmax: both, human, plasma, oral
# patients with T2DM [4] = experiment: Single-dose three-way crossover study: pharmacodynamics; format: in vivo, human
# healthy volunteers = experiment: Phase I trial in healthy volunteers; format: in vivo, human; conditions: 300-mg dose, phase I trial (data not shown)
# patients with T2DM [5] = experiment: 28-day study: safety, adverse events and clinical laboratory values
# [6] = single 300-mg dose of any of the LX4211 formulations
# [7] = 150 or 300 mg once daily for 28 days
structure (smiles),measurement,setting,value
"O=C(CCc1ccc(O)cc1)c1c(O)cc(O)cc1O[C@@H]1O[C@H](CO)[C@@H](O)[C@H](O)[C@H]1O [Phlorizin, phlorizin]",Nausea,humans,induces nausea
same,Conversion in the small intestine,[1],rapidly converted to phloretin
"CCOc1ccc(Cc2cc([C@@H]3O[C@H](SC)[C@@H](O)[C@H](O)[C@H]3O)ccc2Cl)cc1 [LX4211, (2S,3R,4R,5S,6R)-2-(4-chloro-3-(4-ethoxybenzyl)phenyl)-6-(methylthio)tetrahydro-2H-pyran-3,4,5-triol]",FPG reduction from baseline,"patients with T2DM [2]; 150 mg once daily, day 7, placebo 9 mg/dl increase",30 mg/dL
same,Decrease in FPG from baseline after correcting for changes in placebo values,patients with T2DM [2]; 150 mg,39 mg/dL
same,Net 24-h UGE increase relative to placebo,"patients with T2DM [2]; 150 mg, day 1",44 g/day
same,OGTT glucose AUC (hour 0 to 4) lower than placebo,"patients with T2DM [2]; 150 mg, day 2",30%
same,OGTT glucose AUC (hour 0 to 4) lower than placebo,"patients with T2DM [2]; 150 mg, day 13",35%
same,OGTT glucose AUC (hour 0 to 4) lower than placebo,"patients with T2DM [2]; 150 mg, day 27",38%
same,OGTT glucose excursions above baseline FPG lower than placebo,"patients with T2DM [2]; 150 mg, day 27",46%
same,Decrease from baseline HbA1c after correcting for changes in placebo values,"patients with T2DM [2]; 150 mg, day 28",0.66
same,Net 24-h UGE increase relative to placebo,"patients with T2DM [2]; 150 mg, day 28",37 g/day
same,Decrease in FPG from baseline after correcting for changes in placebo values,patients with T2DM [2]; 300 mg,55 mg/dL
same,Net 24-h UGE increase relative to placebo,"patients with T2DM [2]; 300 mg, day 1",65 g/day
same,OGTT glucose AUC (hour 0 to 4) lower than placebo,"patients with T2DM [2]; 300 mg, day 2",30%
same,OGTT glucose AUC (hour 0 to 4) lower than placebo,"patients with T2DM [2]; 300 mg, day 13",36%
same,OGTT glucose AUC (hour 0 to 4) lower than placebo,"patients with T2DM [2]; 300 mg, day 27",39%
same,OGTT glucose excursions above baseline FPG lower than placebo,"patients with T2DM [2]; 300 mg, day 27",46%
same,Decrease from baseline HbA1c after correcting for changes in placebo values,"patients with T2DM [2]; 300 mg, day 28",0.76
same,Net 24-h UGE increase relative to placebo,"patients with T2DM [2]; 300 mg, day 28",48 g/day
same,Amount of glucose excreted in the first 8 h vs the period spanning 8–24 h,patients with T2DM [2]; LX4211-treated groups,comparable
same,Total GLP-1 levels after meals,"patients with T2DM [2]; LX4211-treated groups, day 1 (similar on day 28), post hoc analysis",nonsignificant increase
same,Mean serum triglyceride (TG) level (fell to within the normal range),"patients with T2DM [2]; both LX4211-treated groups (150 and 300 mg), by day 14",< 151 mg/dL
same,Mean homeostasis model assessment of insulin resistance vs placebo,"patients with T2DM [2]; both LX4211 groups, day 27",significantly lower
same,Serum TG vs placebo,"patients with T2DM [2]; both doses, post hoc analysis",statistically significant TG reductions
same,24-h UGE vs placebo,"patients with T2DM [2]; both treatment groups, days 1, 14 and 28",significantly increased
same,2-h postprandial glucose (PPG) levels vs placebo,"patients with T2DM [2]; each treatment group, days 1, 7, 21 and 28",significantly lowered
same,Patients with HbA1c levels ≤7.0%,"patients with T2DM [2]; patients who received LX4211 (150 or 300 mg), day 28, placebo 18%",50%
same,Time after dosing at which Cmax appeared,"[3]; 150 and 300 mg, oral liquid",0.5 to 2.0 h
same,Dose proportionality of increases in Cmax and AUC,[3]; 150 vs 300 mg,slightly more than dose-proportional
same,Steady state reached,"[3]; based on Cmax, AUC0–tau, Cmin, possibly even by day 7",≤ 14 days
same,Tmax,"[3]; Median tmax, days 14 and 28, the two dose groups",1 to 1.5 h
same,Tmax,"[3]; tmax, individual values, the two dose groups",0.48 to 2.02 h
same,Time at which plasma concentrations were detected,"[3]; each LX4211 dose, oral liquid",≤ 15 min
same,Glucagon values vs day −1,patients with T2DM [4]; single 300-mg dose,not altered
same,Plasma insulin between 0 and 13 h vs day −1,patients with T2DM [4]; [6],significantly decreased
same,Total GLP-1 between 0 and 13 h vs day −1,patients with T2DM [4]; [6],significantly increased
same,Total PYY between 0 and 13 h vs day −1,patients with T2DM [4]; [6],significantly increased
same,UGE over the next 24 h vs pretreatment day (day −1),patients with T2DM [4]; [6],significantly increased
same,Tolerability and glycosuric effect,healthy volunteers,well tolerated and produced a maximal glycosuric effect
same,Renal toxicity (laboratory data),patients with T2DM [5]; [7],no evidence of renal toxicity
same,"Treatment-emergent urinary tract infections, genital infections, CV events, episodes of hypoglycemia",patients with T2DM [5]; [7],"no treatment-emergent urinary tract infections, genital infections, CV events, or episodes of hypoglycemia"
same,24-h urine volume relative to placebo,"patients with T2DM [5]; LX4211-treated groups, day 1",slight but nonsignificant increase
same,Urinary calcium excretion,"patients with T2DM [5]; LX4211-treated groups, days 1, 14, 28",at no time during the study was urinary calcium excretion increased
same,Safety and tolerability,"patients with T2DM [5]; at the doses and schedule employed (150 or 300 mg once daily, 28 days)",safe and well tolerated
same,Urinary sodium and chloride excretion relative to placebo,"patients with T2DM [5]; day 1, statistically significant in the 300 mg group",modest increases
same,Frequency of gastrointestinal side effects relative to placebo,patients with T2DM [5]; even after challenge with 75 g of glucose during OGTTs,did not observe an increase
